Laboratory results from ChEMBL document CHEMBL5380878, “A beginner's guide to current synthetic linker strategies towards VHL-recruiting PROTACs” (Bioorg Med Chem, 2023).
pEC50: −log10 of the molar value.

What was measured:
Format in all cases: cell-based
[1] = molecular target: T1, von Hippel-Lindau disease tumor suppressor/Receptor-type tyrosine-protein kinase FLT3 (Homo sapiens, UniProt P36888+P40337); test: PROTAC activity at VHL/FLT3 in human MV4-11 cells assessed as FLT3 degradation by measuring maximal efficacy by Western blot analysis relative to control
[2] = molecular target: T1, von Hippel-Lindau disease tumor suppressor/Receptor-type tyrosine-protein kinase FLT3; test: PROTAC activity at VHL/FLT3 in human MV4-11 cells assessed as induction of FLT3 degradation by Western blot analysis
Target sequence in this assay (P36888 whole entry): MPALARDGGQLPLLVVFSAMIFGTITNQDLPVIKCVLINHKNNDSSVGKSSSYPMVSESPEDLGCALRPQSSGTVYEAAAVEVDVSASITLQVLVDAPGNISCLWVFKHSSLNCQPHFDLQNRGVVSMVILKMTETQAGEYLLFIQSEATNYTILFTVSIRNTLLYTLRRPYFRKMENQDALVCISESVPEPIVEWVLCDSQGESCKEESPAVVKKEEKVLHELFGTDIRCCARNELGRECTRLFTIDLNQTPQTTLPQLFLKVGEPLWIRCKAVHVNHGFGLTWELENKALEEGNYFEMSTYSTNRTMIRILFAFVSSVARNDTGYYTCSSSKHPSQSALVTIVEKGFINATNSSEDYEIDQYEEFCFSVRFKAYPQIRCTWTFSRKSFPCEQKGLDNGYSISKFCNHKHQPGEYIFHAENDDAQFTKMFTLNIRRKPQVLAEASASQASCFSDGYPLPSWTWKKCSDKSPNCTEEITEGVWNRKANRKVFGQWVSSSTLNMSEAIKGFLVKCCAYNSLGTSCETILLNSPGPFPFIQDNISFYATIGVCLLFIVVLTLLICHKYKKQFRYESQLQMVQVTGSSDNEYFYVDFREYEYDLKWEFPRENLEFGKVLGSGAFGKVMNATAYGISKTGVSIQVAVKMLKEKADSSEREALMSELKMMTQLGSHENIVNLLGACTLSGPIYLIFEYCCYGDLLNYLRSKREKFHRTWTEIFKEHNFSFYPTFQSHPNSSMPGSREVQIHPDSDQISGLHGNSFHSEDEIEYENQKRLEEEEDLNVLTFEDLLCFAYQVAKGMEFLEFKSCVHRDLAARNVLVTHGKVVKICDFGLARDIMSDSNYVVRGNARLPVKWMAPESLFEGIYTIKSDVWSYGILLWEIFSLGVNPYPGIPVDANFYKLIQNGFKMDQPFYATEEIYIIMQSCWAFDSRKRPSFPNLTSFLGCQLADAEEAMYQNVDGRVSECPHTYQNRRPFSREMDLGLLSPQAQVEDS
Target sequence in this assay (P40337 whole entry): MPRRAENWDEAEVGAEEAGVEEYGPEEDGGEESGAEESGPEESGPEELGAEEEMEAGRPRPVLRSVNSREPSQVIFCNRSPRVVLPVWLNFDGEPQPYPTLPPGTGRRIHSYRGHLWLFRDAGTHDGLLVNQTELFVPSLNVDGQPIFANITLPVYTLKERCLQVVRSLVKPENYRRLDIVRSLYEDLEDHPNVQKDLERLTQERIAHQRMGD

[3] = molecular target: von Hippel-Lindau disease tumor suppressor/Leucine-rich repeat serine/threonine-protein kinase 2 (Homo sapiens) (UniProt Q5S007+P40337); test: PROTAC activity at VHL/LRRK2 in human MV4-11 cells assessed as LRRK2 degradation by measuring maximal efficacy by Western blot analysis relative to control
[4] = molecular target: von Hippel-Lindau disease tumor suppressor/Leucine-rich repeat serine/threonine-protein kinase 2 (Homo sapiens, UniProt P40337+Q5S007); test: PROTAC activity at VHL/LRRK2 in human MV4-11 cells assessed as induction of LRRK2 degradation by Western blot analysis
[5] = molecular target: von Hippel-Lindau disease tumor suppressor/Cyclin-dependent kinase 6 (Homo sapiens, UniProt P40337+Q00534); test: PROTAC activity at VHL/CDK6 in human MV4-11 cells assessed as induction of CDK6 degradation by Western blot analysis
[6] = molecular target: von Hippel-Lindau disease tumor suppressor/Cyclin-dependent kinase 6 (Homo sapiens) (UniProt Q00534+P40337); test: PROTAC activity at VHL/CDK6 in human MV4-11 cells assessed as CDK6 degradation by measuring maximal efficacy by Western blot analysis
[7] = molecular target: von Hippel-Lindau disease tumor suppressor/Bromodomain-containing protein 4 (Homo sapiens, UniProt O60885+P40337); test: PROTAC activity in VHL/BRD4 in human MV4-11 cells assessed as induction of BRD4 degradation by Western blot analysis
Chain of von Hippel-Lindau disease tumor suppressor/Bromodomain-containing protein 4 (P40337 whole entry, looked up, other chains not shown): as the sequence (P40337 whole entry) above

Chain of von Hippel-Lindau disease tumor suppressor/Leucine-rich repeat serine/threonine-protein kinase 2 (Q5S007 whole entry): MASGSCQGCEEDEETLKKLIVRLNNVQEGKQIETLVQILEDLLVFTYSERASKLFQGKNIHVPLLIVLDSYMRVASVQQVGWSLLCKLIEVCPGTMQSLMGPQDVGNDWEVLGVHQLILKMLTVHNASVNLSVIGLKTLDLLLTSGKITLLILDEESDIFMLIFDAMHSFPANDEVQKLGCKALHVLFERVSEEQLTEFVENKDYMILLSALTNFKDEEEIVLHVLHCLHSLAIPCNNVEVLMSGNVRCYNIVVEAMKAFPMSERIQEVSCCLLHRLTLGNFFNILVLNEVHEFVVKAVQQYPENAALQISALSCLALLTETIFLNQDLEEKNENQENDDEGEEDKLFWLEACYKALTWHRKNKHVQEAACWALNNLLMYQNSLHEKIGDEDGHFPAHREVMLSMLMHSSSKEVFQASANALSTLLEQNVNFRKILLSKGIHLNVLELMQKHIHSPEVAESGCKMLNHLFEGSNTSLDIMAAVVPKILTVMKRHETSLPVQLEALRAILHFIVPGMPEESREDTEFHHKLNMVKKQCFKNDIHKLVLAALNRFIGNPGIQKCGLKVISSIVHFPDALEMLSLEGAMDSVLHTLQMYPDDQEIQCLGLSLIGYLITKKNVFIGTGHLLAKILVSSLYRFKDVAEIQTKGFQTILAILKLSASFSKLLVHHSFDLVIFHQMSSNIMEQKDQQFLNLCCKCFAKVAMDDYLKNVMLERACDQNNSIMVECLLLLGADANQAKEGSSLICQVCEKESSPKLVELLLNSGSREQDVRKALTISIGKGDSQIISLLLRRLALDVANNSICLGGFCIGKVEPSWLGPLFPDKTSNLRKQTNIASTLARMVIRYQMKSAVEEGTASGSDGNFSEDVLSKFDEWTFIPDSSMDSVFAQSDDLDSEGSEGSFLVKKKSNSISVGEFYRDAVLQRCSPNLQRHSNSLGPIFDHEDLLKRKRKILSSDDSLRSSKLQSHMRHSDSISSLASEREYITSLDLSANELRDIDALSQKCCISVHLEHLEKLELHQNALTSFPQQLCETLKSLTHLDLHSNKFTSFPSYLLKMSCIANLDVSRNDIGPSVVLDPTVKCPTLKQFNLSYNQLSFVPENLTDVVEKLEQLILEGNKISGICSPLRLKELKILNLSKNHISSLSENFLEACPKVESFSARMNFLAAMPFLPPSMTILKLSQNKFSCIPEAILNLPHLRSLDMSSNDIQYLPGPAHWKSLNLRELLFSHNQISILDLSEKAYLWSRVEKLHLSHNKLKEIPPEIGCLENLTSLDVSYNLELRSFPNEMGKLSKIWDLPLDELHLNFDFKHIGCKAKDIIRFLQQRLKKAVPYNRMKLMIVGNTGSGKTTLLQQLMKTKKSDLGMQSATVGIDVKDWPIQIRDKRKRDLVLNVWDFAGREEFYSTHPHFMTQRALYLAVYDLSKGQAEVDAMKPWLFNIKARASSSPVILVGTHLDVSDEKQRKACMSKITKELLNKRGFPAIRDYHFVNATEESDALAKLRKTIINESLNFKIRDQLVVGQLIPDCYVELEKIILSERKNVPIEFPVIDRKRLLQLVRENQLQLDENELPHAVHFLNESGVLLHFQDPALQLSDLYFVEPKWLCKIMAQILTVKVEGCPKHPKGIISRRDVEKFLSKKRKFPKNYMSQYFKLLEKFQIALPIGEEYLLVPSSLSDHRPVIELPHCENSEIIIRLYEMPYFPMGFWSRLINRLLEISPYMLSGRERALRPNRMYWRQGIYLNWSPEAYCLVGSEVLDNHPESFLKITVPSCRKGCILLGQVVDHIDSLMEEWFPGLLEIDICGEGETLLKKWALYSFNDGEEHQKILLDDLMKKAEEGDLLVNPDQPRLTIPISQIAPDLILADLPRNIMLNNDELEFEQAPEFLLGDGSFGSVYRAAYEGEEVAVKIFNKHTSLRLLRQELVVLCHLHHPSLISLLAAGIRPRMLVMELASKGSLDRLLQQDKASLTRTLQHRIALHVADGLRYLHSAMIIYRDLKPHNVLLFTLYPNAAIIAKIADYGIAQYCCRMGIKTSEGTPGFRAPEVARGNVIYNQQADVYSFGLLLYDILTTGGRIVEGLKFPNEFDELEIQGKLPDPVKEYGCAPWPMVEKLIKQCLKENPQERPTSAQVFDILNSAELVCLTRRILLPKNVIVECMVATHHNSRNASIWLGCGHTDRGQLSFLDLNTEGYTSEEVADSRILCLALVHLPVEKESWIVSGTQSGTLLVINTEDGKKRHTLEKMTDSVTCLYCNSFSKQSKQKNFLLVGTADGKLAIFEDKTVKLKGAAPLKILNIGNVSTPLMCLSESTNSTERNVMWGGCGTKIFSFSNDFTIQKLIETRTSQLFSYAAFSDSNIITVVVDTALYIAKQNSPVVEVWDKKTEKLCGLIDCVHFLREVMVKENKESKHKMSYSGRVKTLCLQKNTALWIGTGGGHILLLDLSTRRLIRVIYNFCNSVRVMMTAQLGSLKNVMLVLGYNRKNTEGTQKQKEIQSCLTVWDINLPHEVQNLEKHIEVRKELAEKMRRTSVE
Chain of von Hippel-Lindau disease tumor suppressor/Leucine-rich repeat serine/threonine-protein kinase 2 (P40337 whole entry): as the sequence (P40337 whole entry) above
Chain of von Hippel-Lindau disease tumor suppressor/Cyclin-dependent kinase 6 (Q00534 whole entry): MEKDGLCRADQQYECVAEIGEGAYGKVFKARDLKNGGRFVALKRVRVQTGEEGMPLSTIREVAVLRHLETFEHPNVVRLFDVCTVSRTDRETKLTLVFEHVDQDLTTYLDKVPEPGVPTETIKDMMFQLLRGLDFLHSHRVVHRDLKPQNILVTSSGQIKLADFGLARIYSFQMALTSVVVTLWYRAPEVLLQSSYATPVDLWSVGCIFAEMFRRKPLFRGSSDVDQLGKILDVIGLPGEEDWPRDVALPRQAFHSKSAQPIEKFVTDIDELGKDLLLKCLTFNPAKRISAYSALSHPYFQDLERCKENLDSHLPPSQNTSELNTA
Chain of von Hippel-Lindau disease tumor suppressor/Cyclin-dependent kinase 6 (P40337 whole entry): as the sequence (P40337 whole entry) above
Chain of von Hippel-Lindau disease tumor suppressor/Cyclin-dependent kinase 6 (Homo sapiens) (P40337 whole entry, looked up): as the sequence (P40337 whole entry) above
Chain of von Hippel-Lindau disease tumor suppressor/Cyclin-dependent kinase 6 (Homo sapiens) (Q00534 whole entry, looked up): as the sequence (Q00534 whole entry) above
Chain of von Hippel-Lindau disease tumor suppressor/Leucine-rich repeat serine/threonine-protein kinase 2 (Homo sapiens) (P40337 whole entry, looked up): as the sequence (P40337 whole entry) above
Chain of von Hippel-Lindau disease tumor suppressor/Leucine-rich repeat serine/threonine-protein kinase 2 (Homo sapiens) (Q5S007 whole entry, looked up): as the sequence (Q5S007 whole entry) above

## Cc1ncsc1-c1ccc(CNC(=O)[C@@H]2C[C@@H](O)CN2C(=O)[C@@H](NC(=O)CCOCCOCCOc2ccc3c(c2)sc2nc(-c4ccc(NC(=O)Nc5cc(C(C)(C)C)on5)cc4)cn23)C(C)(C)C)cc1
[1]
  Emax: 90%
[2]
  pEC50: > 8.30

## CNc1nc(Nc2ccc(C(=O)N3CCN(C[C@H]4CC[C@H](CSC(C)(C)[C@H](NC(=O)C5(F)CC5)C(=O)N5C[C@H](O)C[C@H]5C(=O)NCc5ccc(-c6scnc6C)cc5)CC4)CC3)cc2OC)ncc1Cl
[3]
  Emax: > 82%
[4]
  pEC50: 7.82

## CC(=O)c1c(C)c2cnc(Nc3ccc(N4CCN(CCOCCOCCOc5cc(-c6scnc6C)ccc5CNC(=O)[C@@H]5C[C@@H](O)CN5C(=O)[C@@H](NC(=O)C5(F)CC5)C(C)(C)C)CC4)cn3)nc2n(C2CCCC2)c1=O
[5]
  pEC50: 8.29
[6]
  Emax: 95%

## Cc1cc([C@H](C(=O)N2C[C@H](O)C[C@H]2C(=O)N[C@@H](C)c2ccc(-c3scnc3C#CCOCCOCCOCCOCCNC(=O)C[C@@H]3N=C(c4ccc(Cl)cc4)c4c(sc(C)c4C)-n4c(C)nnc43)cc2)C(C)C)on1
[7]
  pEC50: 7.80
